# What was measured:
# Format in all cases: biochemical
# Settings in all cases: wild-type un-phosphorylated protein; pre-incubated for 4 hours; ATP near or below Km
# [1] = biological target: wild-type un-phosphorylated FGFR3 (Homo sapiens, UniProt P22607); assay: FGFR Enzymatic Assay (FRET peptide phosphorylation), FGFR3
# Experimental: (§1) The inhibitor potency of the exemplified compounds was determined in an enzyme discontinuous assay that measures peptide phosphorylation using FRET measurements to detect product formation. Inhibitors were serially diluted in DMSO and a volume of 0.2 μL was transferred to the wells of a 384-well plate. […] Appropriate controls (enzyme blank and enzyme with no inhibitor) were included on the plate. […] The ATP Km values were pre-determined in a separate series of experiments. […] The plate was allowed to equilibrate for ˜10 minutes at ambient temperature before scanning on a PheraStar plate reader (BMG Labtech) instrument.
# (§2) Either GraphPad prism or XLfit was used to analyze the data. The IC50 values were derived by fitting the data to a four parameter logistic equation producing a sigmoidal dose-response curve with a variable Hill coefficient. Prism equation: Y=Bottom+(Top−Bottom)/(1+10^((LogIC50−X)*Hill slope)); XLfit equation: Y=(A+((B−A)/(1+((X/C)^D)))) where X is the logarithm of inhibitor concentration and Y is the response.
# [2] = biological target: wild-type un-phosphorylated FGFR1 (Homo sapiens, UniProt P11362); assay: FGFR Enzymatic Assay (FRET peptide phosphorylation), FGFR1
# Experimental: as §1, §2
# [3] = biological target: wild-type un-phosphorylated FGFR2 (Homo sapiens, UniProt P21802); assay: FGFR Enzymatic Assay (FRET peptide phosphorylation), FGFR2
# Experimental: as §1, §2
# The data in Table 1 was measured in wild-type un-phosphorylated FGFR1, FGFR2, FGFR3 and FGFR4 protein.
# Sequence of wild-type un-phosphorylated FGFR1 (P11362 22-822): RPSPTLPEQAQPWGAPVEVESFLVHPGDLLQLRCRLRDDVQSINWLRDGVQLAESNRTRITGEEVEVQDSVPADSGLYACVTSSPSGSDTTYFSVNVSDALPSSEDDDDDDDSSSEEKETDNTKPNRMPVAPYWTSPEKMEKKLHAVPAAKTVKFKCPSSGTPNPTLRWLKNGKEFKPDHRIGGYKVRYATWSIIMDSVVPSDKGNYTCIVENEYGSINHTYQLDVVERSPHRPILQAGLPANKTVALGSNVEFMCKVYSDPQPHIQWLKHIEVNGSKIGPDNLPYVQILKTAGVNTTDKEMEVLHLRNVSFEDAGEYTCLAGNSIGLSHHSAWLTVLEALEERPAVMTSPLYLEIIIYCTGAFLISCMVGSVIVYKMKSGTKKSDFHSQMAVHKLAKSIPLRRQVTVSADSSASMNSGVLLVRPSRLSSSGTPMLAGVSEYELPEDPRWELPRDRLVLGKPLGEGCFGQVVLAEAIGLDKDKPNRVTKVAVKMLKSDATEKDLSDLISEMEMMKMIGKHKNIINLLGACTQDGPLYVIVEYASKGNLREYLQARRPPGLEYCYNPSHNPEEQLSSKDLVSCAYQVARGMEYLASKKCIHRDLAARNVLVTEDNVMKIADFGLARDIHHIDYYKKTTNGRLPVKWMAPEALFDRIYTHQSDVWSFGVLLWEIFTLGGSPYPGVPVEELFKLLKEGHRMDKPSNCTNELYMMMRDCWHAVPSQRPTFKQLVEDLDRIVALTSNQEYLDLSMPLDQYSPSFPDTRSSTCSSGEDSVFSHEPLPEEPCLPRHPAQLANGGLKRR
# Sequence of wild-type un-phosphorylated FGFR2 (P21802 22-821): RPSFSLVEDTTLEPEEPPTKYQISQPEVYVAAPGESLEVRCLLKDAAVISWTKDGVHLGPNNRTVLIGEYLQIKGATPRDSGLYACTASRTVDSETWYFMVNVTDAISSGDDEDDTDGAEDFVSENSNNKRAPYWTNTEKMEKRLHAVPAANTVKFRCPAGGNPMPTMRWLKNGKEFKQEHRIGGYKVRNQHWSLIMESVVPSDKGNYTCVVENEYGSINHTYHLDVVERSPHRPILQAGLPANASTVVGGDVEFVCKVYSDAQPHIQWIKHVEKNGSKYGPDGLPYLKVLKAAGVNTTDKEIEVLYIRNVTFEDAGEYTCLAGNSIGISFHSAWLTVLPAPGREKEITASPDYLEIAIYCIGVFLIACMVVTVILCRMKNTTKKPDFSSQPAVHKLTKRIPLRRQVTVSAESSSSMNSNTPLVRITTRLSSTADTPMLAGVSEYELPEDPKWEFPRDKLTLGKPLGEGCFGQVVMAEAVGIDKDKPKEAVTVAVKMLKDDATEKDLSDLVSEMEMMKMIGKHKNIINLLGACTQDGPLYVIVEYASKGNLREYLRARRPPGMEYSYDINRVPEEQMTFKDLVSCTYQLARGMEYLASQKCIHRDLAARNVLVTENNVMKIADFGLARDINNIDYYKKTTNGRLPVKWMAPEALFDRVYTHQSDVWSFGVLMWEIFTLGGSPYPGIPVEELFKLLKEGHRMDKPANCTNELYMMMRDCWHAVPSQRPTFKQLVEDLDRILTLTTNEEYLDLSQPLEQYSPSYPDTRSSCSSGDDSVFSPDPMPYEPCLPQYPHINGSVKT
# Sequence of wild-type un-phosphorylated FGFR3 (P22607 23-806): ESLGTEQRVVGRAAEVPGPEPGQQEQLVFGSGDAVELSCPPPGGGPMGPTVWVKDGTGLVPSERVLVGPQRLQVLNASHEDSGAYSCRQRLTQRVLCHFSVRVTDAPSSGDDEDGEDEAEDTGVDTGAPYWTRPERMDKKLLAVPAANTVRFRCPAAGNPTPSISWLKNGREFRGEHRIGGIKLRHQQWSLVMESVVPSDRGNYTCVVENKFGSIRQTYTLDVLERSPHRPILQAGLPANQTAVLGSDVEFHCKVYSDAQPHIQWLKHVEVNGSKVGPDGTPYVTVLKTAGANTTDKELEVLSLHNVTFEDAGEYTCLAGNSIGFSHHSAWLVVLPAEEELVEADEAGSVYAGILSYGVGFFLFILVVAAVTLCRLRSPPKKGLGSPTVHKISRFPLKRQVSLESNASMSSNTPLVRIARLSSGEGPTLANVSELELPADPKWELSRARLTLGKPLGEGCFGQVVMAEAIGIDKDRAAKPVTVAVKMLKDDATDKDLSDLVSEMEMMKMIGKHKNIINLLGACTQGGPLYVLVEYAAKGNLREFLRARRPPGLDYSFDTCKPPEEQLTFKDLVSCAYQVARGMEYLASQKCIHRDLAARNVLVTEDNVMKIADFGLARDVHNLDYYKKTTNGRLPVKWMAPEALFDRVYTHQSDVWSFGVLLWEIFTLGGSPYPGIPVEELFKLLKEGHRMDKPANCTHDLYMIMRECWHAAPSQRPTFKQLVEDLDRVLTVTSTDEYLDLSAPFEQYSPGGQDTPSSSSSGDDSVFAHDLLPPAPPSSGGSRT
Structure (SMILES),IC50 [1],IC50 [2],IC50 [3]
"CNC(=O)c1cc(F)c(F)c(-c2cnc3cc(-c4cnn(C(C)C)c4)c(O[C@H]4CCOC4)nn23)c1 [Example 24, (S)-3,4-Difluoro-5-(7-(1-isopropyl-1H-pyrazol-4-yl)-6-((tetrahydrofuran-3-yl)oxy)imidazo[1,2-b]pyridazin-3-yl)-N-methylbenzamide]",< 10 nM,< 10 nM,< 10 nM
"CNC(=O)c1cc(-c2cnc3cc(-c4cnn5ccccc45)c(O[C@H]4CCOC4)nn23)c(F)c(C(F)F)c1 [Example 27, (S)-3-(Difluoromethyl)-4-fluoro-N-methyl-5-(7-(pyrazolo[1,5-a]pyridin-3-yl)-6-((tetrahydrofuran-3-yl)oxy)imidazo[1,2-b]pyridazin-3-yl)benzamide]",10 to 100 nM,10 to 100 nM,10 to 100 nM
"CNC(=O)c1cc(F)c(F)c(-c2cnc3cc(-c4cnn(C)c4)c(OCCOC)nn23)c1 [Example 20, 3,4-Difluoro-5-(6-(2-methoxyethoxy)-7-(1-methyl-1H-pyrazol-4-yl)imidazo[1,2-b]pyridazin-3-yl)-N-methylbenzamide]",< 10 nM,10 to 100 nM,< 10 nM
"CNC(=O)c1cc(CN2CCCC2)c(F)c(-c2cnc3cc(-c4cnn(C)c4)c(O[C@H]4CCOC4)nn23)c1 [Example 45, (S)-4-Fluoro-N-methyl-3-(7-(1-methyl-1H-pyrazol-4-yl)-6-((tetrahydrofuran-3-yl)oxy)imidazo[1,2-b]pyridazin-3-yl)-5-(pyrrolidin-1-ylmethyl)benzamide]",10 to 100 nM,10 to 100 nM,10 to 100 nM
"CNC(=O)c1cc(F)c(F)c(-c2cnc3cc(-c4cnn(C5CCN(C(=O)N(C)C)CC5)c4)c(O[C@H]4CCOC4)nn23)c1 [Example 73, (S)-4-(4-(3-(2,3-Difluoro-5-(methylcarbamoyl)phenyl)-6-((tetrahydrofuran-3-yl)oxy)imidazo[1,2-b]pyridazin-7-yl)-1H-pyrazol-1-yl)-N,N-dimethylpiperidine-1-carboxamide]",< 10 nM,< 10 nM,< 10 nM
"CC(C)n1cc(-c2cc3ncc(-c4ccc5c(c4)C(=O)NC5)n3nc2O[C@H]2CCOC2)cn1 [Example 77, (S)-6-(7-(1-Isopropyl-1H-pyrazol-4-yl)-6-((tetrahydrofuran-3-yl)oxy)imidazo[1,2-b]pyridazin-3-yl)isoindolin-1-one]",10 to 100 nM,≥ 400 nM,10 to 100 nM
"CNC(=O)c1cc(-c2cnc3cc(-c4ccc(C(=O)NC)c(F)c4)c(O[C@H]4CCOC4)nn23)c(F)c(C(F)F)c1 [Example 36, (S)-3-(Difluoromethyl)-4-fluoro-5-(7-(3-fluoro-4-(methylcarbamoyl)phenyl)-6-((tetrahydrofuran-3-yl)oxy)imidazo[1,2-b]pyridazin-3-yl)-N-methylbenzamide]",10 to 100 nM,100 to 400 nM,10 to 100 nM
"CNC(=O)c1cc(F)c(F)c(-c2cnc3cc(-c4cnn(C5CCN(C)CC5)c4)c(O[C@H]4CCOC4)nn23)c1 [Example 71, (S)-3,4-Difluoro-N-methyl-5-(7-(1-(1-methylpiperidin-4-yl)-1H-pyrazol-4-yl)-6-((tetrahydrofuran-3-yl)oxy)imidazo[1,2-b]pyridazin-3-yl)benzamide]",< 10 nM,< 10 nM,< 10 nM
"CNC(=O)c1cc(-c2cnc3cc(-c4ccc(C(C)(C)O)nc4)c(O[C@H]4CCOC4)nn23)c(F)c(C(F)F)c1 [Example 35, (S)-3-(Difluoromethyl)-4-fluoro-5-(7-(6-(2-hydroxypropan-2-yl)pyridin-3-yl)-6-((tetrahydrofuran-3-yl)oxy)imidazo[1,2-b]pyridazin-3-yl)-N-methylbenzamide]",< 10 nM,100 to 400 nM,10 to 100 nM
"CNC(=O)c1cc(F)c(F)c(-c2cnc3cc(-c4cnn(C5COC5)c4)c(O[C@H]4CCOC4)nn23)c1 [Example 23, (S)-3,4-Difluoro-N-methyl-5-(7-(1-(oxetan-3-yl)-1H-pyrazol-4-yl)-6-((tetrahydrofuran-3-yl)oxy)imidazo[1,2-b]pyridazin-3-yl)benzamide]",< 10 nM,10 to 100 nM,< 10 nM
"CNC(=O)c1cc(-c2cnc3cc(-c4cnn(Cc5cccnc5)c4)c(O[C@H]4CCOC4)nn23)c(F)c(C(F)F)c1 [Example 29, (S)-3-(Difluoromethyl)-4-fluoro-N-methyl-5-(7-(1-(pyridin-3-ylmethyl)-1H-pyrazol-4-yl)-6-((tetrahydrofuran-3-yl)oxy)imidazo[1,2-b]pyridazin-3-yl)benzamide]",< 10 nM,10 to 100 nM,< 10 nM
"CNC(=O)c1cc(F)c(F)c(-c2cnc3cc(-c4cnn(CCN5CCCC5=O)c4)c(O[C@H]4CCOC4)nn23)c1 [Example 75, (S)-3,4-Difluoro-N-methyl-5-(7-(1-(2-(2-oxopyrrolidin-1-yl)ethyl)-1H-pyrazol-4-yl)-6-((tetrahydrofuran-3-yl)oxy)imidazo[1,2-b]pyridazin-3-yl)benzamide]",< 10 nM,< 10 nM,< 10 nM
"CC(C)n1cc(-c2cc3ncc(-c4cccc(F)c4F)n3nc2O[C@H]2CCOC2)cn1 [Example 46, (S)-3-(2,3-Difluorophenyl)-7-(1-isopropyl-1H-pyrazol-4-yl)-6-((tetrahydrofuran-3-yl)oxy)imidazo[1,2-b]pyridazine]",10 to 100 nM,100 to 400 nM,10 to 100 nM
"CNC(=O)c1cc(F)c(F)c(-c2cnc3cc(-c4ccc(C)nc4)c(O[C@H]4CCOC4)nn23)c1 [Example 21, (S)-3,4-Difluoro-N-methyl-5-(7-(6-methylpyridin-3-yl)-6-((tetrahydrofuran-3-yl)oxy)imidazo[1,2-b]pyridazin-3-yl)benzamide]",< 10 nM,100 to 400 nM,10 to 100 nM
"CNC(=O)c1cc(CC#N)c(F)c(-c2cnc3cc(-c4cnn(C)c4)c(O[C@H]4CCOC4)nn23)c1 [Example 44, (S)-3-(Cyanomethyl)-4-fluoro-N-methyl-5-(7-(1-methyl-1H-pyrazol-4-yl)-6-((tetrahydrofuran-3-yl)oxy)imidazo[1,2-b]pyridazin-3-yl)benzamide]",< 10 nM,100 to 400 nM,10 to 100 nM
"CNC(=O)c1cc(CO)c(F)c(-c2cnc3cc(-c4cnn(C)c4)c(O[C@H]4CCOC4)nn23)c1 [Example 40, (S)-4-Fluoro-3-(hydroxymethyl)-N-methyl-5-(7-(1-methyl-1H-pyrazol-4-yl)-6-((tetrahydrofuran-3-yl)oxy)imidazo[1,2-b]pyridazin-3-yl)benzamide]",< 10 nM,10 to 100 nM,< 10 nM
"CNC(=O)c1cc(-c2cnc3cc(-c4cnn5c4CNCC5)c(O[C@H]4CCOC4)nn23)c(F)c(C(F)F)c1 [Example 28, (S)-3-(Difluoromethyl)-4-fluoro-N-methyl-5-(6-((tetrahydrofuran-3-yl)oxy)-7-(4,5,6,7-tetrahydropyrazolo[1,5-a]pyrazin-3-yl)imidazo[1,2-b]pyridazin-3-yl)benzamide]",10 to 100 nM,≥ 400 nM,10 to 100 nM
"CNC(=O)c1cc(F)c(F)c(-c2cnc3cc(-c4cnn(C5CCS(=O)(=O)C5)c4)c(O[C@H]4CCOC4)nn23)c1 (stereo partly drawn) [Example 69, 3-(7-(1-(1,1-Dioxidotetrahydrothiophen-3-yl)-1H-pyrazol-4-yl)-6-(((S)-tetrahydrofuran-3-yl)oxy)imidazo[1,2-b]pyridazin-3-yl)-4,5-difluoro-N-methylbenzamide]",< 10 nM,10 to 100 nM,< 10 nM
"CNC(=O)c1cc(-c2cnc3cc(-c4cnn([C@H]5CC[C@H](O)CC5)c4)c(O[C@H]4CCOC4)nn23)c(F)c(C(F)F)c1 [Example 34, 3-(Difluoromethyl)-4-fluoro-5-(7-(1-((1r,4S)-4-hydroxycyclohexyl)-1H-pyrazol-4-yl)-6-(((S)-tetrahydrofuran-3-yl)oxy)imidazo[1,2-b]pyridazin-3-yl)-N-methylbenzamide]",< 10 nM,< 10 nM,< 10 nM
"CCOc1cccc(-c2cnc3cc(-c4cnn(C)c4)c(O[C@H]4CCOC4)nn23)c1 [Example 47, (S)-3-(3-Ethoxyphenyl)-7-(1-methyl-1H-pyrazol-4-yl)-6-((tetrahydrofuran-3-yl)oxy)imidazo[1,2-b]pyridazine]",10 to 100 nM,10 to 100 nM,10 to 100 nM
"CNC(=O)c1cc(-c2cnc3cc(-c4ccc(N5CCCC5=O)nc4)c(O[C@H]4CCOC4)nn23)c(F)c(C(F)F)c1 [Example 33, (S)-3-(Difluoromethyl)-4-fluoro-N-methyl-5-(7-(6-(2-oxopyrrolidin-1-yl)pyridin-3-yl)-6-((tetrahydrofuran-3-yl)oxy)imidazo[1,2-b]pyridazin-3-yl)benzamide]",< 10 nM,100 to 400 nM,10 to 100 nM
"CNC(=O)c1cc(-c2cnc3cc(-c4cnn(C(C)(C)C#N)c4)c(O[C@H]4CCOC4)nn23)c(F)c(C(F)F)c1 [Example 26, (S)-3-(7-(1-(2-Cyanopropan-2-yl)-1H-pyrazol-4-yl)-6-((tetrahydrofuran-3-yl)oxy)imidazo[1,2-b]pyridazin-3-yl)-5-(difluoromethyl)-4-fluoro-N-methylbenzamide]",< 10 nM,10 to 100 nM,< 10 nM

# Source: patent US12012409B2, “Bicyclic heterocycles as FGFR inhibitors” (Incyte Corporation, priority 2020, dated 2024)
